{
  "source": "patent US10857167B2",
  "about": "“Use of oligosaccharide compositions to enhance weight gain” (Children's Hospital Medical Center, priority 2015, dated 2020)",
  "format_in_all_cases": "in vivo, mouse",
  "key": {"[1]": {"test_system": "TFF3, MUC2, DEFA5, ZO-1, HSPA1A, Reg3b, Reg3g", "assay": "Expression of genes relative to β-Actin in pre-operative and post-ICR mice", "details": "post-ICR with 2′ FL supplementation"}, "[2]": {"test_system": "small bowel luminal microbiome", "assay": "16S sequencing of small bowel luminal contents after ICR", "source_text": "Luminal small bowel contents were expressed into AllProtect Tissue Reagent (Qiagen Inc, CA). Bacterial DNA was extracted using the AllPrep DNA/RNA Mini Kit (Qiagen Inc, CA), according to kit instructions and prior to sequencing (described below). Small bowel tissue samples for RNA were placed into RNA Later (Life Technologies, NY). RNA extraction was accomplished following Qiagen RNeasy Plus Kit instruction (Qiagen Inc, CA). All nucleic acid samples were then stored at −80 Celsius until sequenced (described below).\nFollowing bacterial community DNA extraction from harvested small bowel contents obtained from operated mice taken to 8 weeks, samples were quantified using the Qubit ssDNA kit (Life Technologies, NY). The V3 and V4 regions of the 16S gene were then amplified and tagged with region-specific primers (Illumina flowcell compatible sequences), permitting sequencing of up to 576 individual bacterial communities on the same flowcell. Fadrosh et al. (2014) Microbiome 2:6. Two positive and 2 negative controls were included in each run. FastStart Taq kit (Roche Applied Science, Indianapolis, Ind.) was used for thermocycling then equal volumes of each amplicon were pooled and cleaned using the QIAquick PCR cleanup column (Qiagen, MD). The size of library pools was then verified using the Fragment Analyzer CE (AATI, Ames Iowa) and quantified using the Qubit high sensitivity dsDNA kit. Dilution to 1 nM and addition of PhiX V3 library (Illumina, Calif.) was followed by denaturation and further dilution to 12 pM in Illumina's HT1 buffer. The pool was then loaded to the Illumina MiSeq V2 500 cycle kit cassette, a sample sheet prepared, and the MiSeq run was initiated for FASTQ generation.\nThe 16S rRNA amplicon sequences were assembled and processed using an integrated, high-throughput analysis pipeline established at Cincinnati Children's Hospital Medical Center. Paired-end reads were assembled and quality filtered using Pandaseq v2.8. Masella et al. (2012) BMC bioinformatics 13: 31. Reads with ambiguous base calls, minimum overlap of 10 nt, or <425 nt were culled. Demultiplexing and removal of barcodes and primers was performed using the FastX-toolkit. Pearson et al. (1997) Genomics 46: 24-36. De novo clustering at 97% sequence similarity and chimera filtering was performed using UPARSE v7. Edgar (2013) Nature methods 10: 996-998. UCLUST, as implemented in QIIME v1.8, was used for taxonomic classification to the Greengenes v13.8 database. Caporaso et al. (2010) Nature methods 7: 335-336; Edgar (2010) Bioinformatics 26: 2460-2461; and McDonald et al. (2012) The ISME journal 6: 610-618. PyNast and FastTree were used to align sequence reads and construct a phylogenetic tree. Caporaso et al. (2010) Bioinformatics 26: 266-267; and Price et al. (2010) PloS one 5: e9490; Price M N et al. (2009) Molecular biology and evolution 26: 1641-1650. Additional integrated analyses included QIIME scripts for the generation of alpha and beta diversity metrics, corresponding visualizations, and summaries and plots of taxonomic composition. Alpha and beta diversity metrics were computed after subsampling to the lowest observed read depth (n=7,793 reads).\nIn order to estimate the treatment effect on alpha diversity metrics adjusted for housing cohort, a generalized ANCOVA model was used. The Chaol, Shannon, Simpson and Faith's Phylogenetic Diversity indices were examined. Differences between groups in community composition post-treatment, as measured by the weighted and unweighted UniFrac metrics (Lozupone and Knight (2005) Applied and environmental microbiology 71: 8228-8235) were tested by permutational ANOVA as implemented by the ADONIS function in the R package vegan. Oksanen et al. (2015) Vegan: Community Ecology Package. 2015; and Team (2015) R: A language and environment for statistical computing R Foundation for Statistical Computing [http://www.R-project.org/. 2015]. […]"}, "[3]": {"test_system": "small bowel of mice after ileocecal resection (ICR)", "assay": "Histologic markers of adaptation (villus height, crypt depth, bowel circumference, intestinal length) after ICR", "details": "for crypt depth, median / intestinal length (corrected), median / small bowel circumference, median / villus height, median: 2′-FL supplemented ICR subgroup, interquartile range in brackets", "description": "At the time of resection, tissue was obtained to prepare for histologic examination (FIG. 12). No differences in measurements of villus height, crypt depth, and bowel circumference were found at the time of resection. […] Crypts of both post-operative control and 2′ FL supplemented groups were deeper than those of pre-operative tissue. […] Only weights were obtained from non-operated control animals. Resected intestine from operated animals was measured for length then the site of small bowel transection was processed for small bowel contents, histology, and RNA. At the time of experimental completion, small bowel immediately proximal to the site of anastomosis was also harvested for small bowel contents, histology, and RNA from the operated group. Small bowel tissue samples for histology were cut in the longitudinal and transverse section, fixed with 4% paraformaldehyde, mounted in paraffin, and stained with hemotoxylin and eosin. Villous height, crypt depth, and bowel circumference were measured in a blinded manor. At least 10 well-oriented villus and crypt domains were assessed for each sample and two samples were averaged per mouse. The serosal circumference was measured twice per sample with two samples per mouse. The average value per mouse was determined. Measurements were performed using the Nikon Ti-Eclipse with NIS Element Advanced Research version 4.20 (Nikon Inc, NY). […] Intestinal length was compared across groups using the Wilcoxon rank-sum test as values were not normally distributed. Histologic count data was averaged per mouse across two samples and compared by the Wilcoxon rank-sum test. Weight data was analyzed using Stata version 13.0 (StataCorp LP, TX). Remaining morphometric and histologic data were analyzed using GraphPad Prism version 5 (GraphPad Software Inc, CA)."}, "[4]": {"details": "luminal contents, postop vs preop"}},
  "note": "“Also recorded” adds a separate entry of the source.",
  "data": [
    {"smiles": "C[C@@H]1O[C@@H](O[C@H]2[C@H](O[C@H]3[C@H](O)[C@@H](O)C(O)O[C@@H]3CO)O[C@H](CO)[C@H](O)[C@@H]2O)[C@@H](O)[C@H](O)[C@@H]1O", "note": "(stereo partly shown) [2′-FL, 2′-fucosyllactose]", "values": [
      {"measurement": "expression of genes TFF3, DEFA5, HSPA1A, Reg3b, and Reg3g relative to β-Actin", "setting": "[1]", "value": "increased expression"},
      {"measurement": "relative abundance of Enterobacteriaceae after resection compared to control", "setting": "[2]; [4]", "value": "greater decline"},
      {"measurement": "relative abundance of Lachnospiraceae after resection compared to control", "setting": "[2]; [4]", "value": "relatively larger bloom"},
      {"measurement": "weighted or unweighted UniFrac metrics compared to control", "setting": "[2]; post-treatment, 8 weeks after ICR", "value": "Nor were differences in the weighted or unweighted UniFrac metrics detected"},
      {"measurement": "other alpha-diversity metrics examined (Chao1, Simpson, Faith's Phylogenetic Diversity) compared to control", "setting": "[2]; small bowel luminal contents 8 weeks after ICR", "value": "No differences were detected"},
      {"measurement": "microbial alpha diversity by Shannon diversity index compared to control", "setting": "[2]; small bowel luminal contents 56 days after ICR", "value": "significant increase; also recorded: increased; also recorded: greater alpha diversity"},
      {"measurement": "enrichment of sequence reads of genus Parabacteroides (OTU_146) compared to controls", "setting": "[2]; small bowel luminal contents 56 days after ICR, adjusted for housing cohort", "value": 4.1, "unit": "log 2-fold"},
      {"measurement": "increase in microbes of the genus Parabacteroides compared to controls", "setting": "[2]; supplemented, resected animals", "value": "> 4", "unit": "fold"},
      {"measurement": "crypt depth, median", "setting": "[3]; postoperative day 21", "value": 89, "unit": "μm"},
      {"measurement": "intestinal length (corrected), median", "setting": "[3]; postoperative day 21", "value": 35.5, "unit": "cm"},
      {"measurement": "small bowel circumference, median", "setting": "[3]; postoperative day 21", "value": "7,133 μm"},
      {"measurement": "villus height, median", "setting": "[3]; postoperative day 21", "value": 346, "unit": "μm"},
      {"measurement": "crypt depth, median", "setting": "[3]; postoperative day 56", "value": 106, "unit": "μm"},
      {"measurement": "intestinal length (corrected), median", "setting": "[3]; postoperative day 56", "value": 38.5, "unit": "cm"},
      {"measurement": "small bowel circumference, median", "setting": "[3]; postoperative day 56", "value": "9,671 μm"},
      {"measurement": "villus height, median", "setting": "[3]; postoperative day 56", "value": 405, "unit": "μm"},
      {"measurement": "histologic markers of adaptation (crypt depth, villus height, bowel circumference) compared to control", "setting": "[3]; point of weight divergence, 21 days post-ICR", "value": "did not alter"},
      {"measurement": "crypt depth compared to control ICR", "setting": "[3]; postoperative day 21", "value": "no difference"},
      {"measurement": "villus height compared to control ICR", "setting": "[3]; postoperative day 21", "value": "no difference"},
      {"measurement": "intestinal length compared to control ICR", "setting": "[3]; postoperative day 21 and day 56", "value": "no difference"},
      {"measurement": "villus height compared to control ICR", "setting": "[3]; postoperative day 56", "value": "appeared longer; also recorded: trended toward a greater height"},
      {"measurement": "crypt depth compared to control ICR", "setting": "[3]; postoperative day 56 (8 weeks)", "value": "increased; also recorded: significantly deeper"},
      {"measurement": "crypt depth compared to control ICR", "setting": "[3]; postoperative day 56 (8 weeks), listed as 2′ Fl", "value": "significantly greater"},
      {"measurement": "crypt depth compared to control ICR", "setting": "[3]; postoperative day 56 (8 weeks), listed as 2′FL", "value": "significantly greater"},
      {"measurement": "bowel circumference compared to control ICR", "setting": "[3]; postoperative day 56 (Example 2)", "value": "no significant difference"},
      {"measurement": "villus height compared to control ICR", "setting": "[3]; postoperative day 56, listed as 2′-Fl", "value": "appeared longer"},
      {"measurement": "duration of the acute histologic response to ICR compared to control", "setting": "[3]; postoperative day 56 plotted alongside day 21", "value": "sustains the acute histologic response over a longer time period; also recorded: sustained the acute increases"},
      {"measurement": "small bowel circumference compared to control ICR", "setting": "[3]; postoperative days 21 or 56", "value": "no statistical difference"}
    ]}
  ]
}
